Reference: US8076487B2, “Pyridone derivative and herbicide” (Kumiai Chemical Industry Co., Ltd., priority 2006, dated 2011)

Columns and labels:
Assay type in all cases: in vivo
[1] = tested on: Japanese bulrush (Scirpus juncoides Roxb.); assay: Test Example 1: herbicidal effect by soil application to paddy field; conditions: paddy field soil application; active ingredient 1,000 g per 1 hectare; wettable powder added dropwise to water surface the day after sowing; examined on the 21st day after application
Procedure, shortened: (§1)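 Under greenhouse conditions, seeds sown on puddled paddy soil in 100 cm2 pots under 3 cm of standing water received the test compound; injury was assessed with a standard scoring scheme three weeks (day 21) after treatment.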

[2] = tested on: early watergrass (Echinochloa oryzicola Vasing); assay: as above; conditions: paddy field soil application; active ingredient 1,000 g per 1 hectare; wettable powder added dropwise to water surface the day after sowing; examined on the 21st day after application
Procedure, shortened: as §1

[3] = tested on: heartshape false pickerelweed (Monochoria vaginalis (Burm.f.) C.Presl); assay: as above; conditions: paddy field soil application; active ingredient 1,000 g per 1 hectare; wettable powder added dropwise to water surface the day after sowing; examined on the 21st day after application
Procedure, shortened: as §1

[4] = tested on: barnyardgrass (Echinochloa crus-galli (L.) P. Beauv. var. crus-galli); assay: Test Example 2: herbicidal effect by soil application to upland field; conditions: soil surface spray, upland field soil, 1,000 g active ingredient per hectare, 21st day after application
Procedure, shortened: (§2)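 Scoring on a standard scale took place 21 days after application, with plants kept in a greenhouse. Active ingredient (1,000 g/ha, as diluted wettable powder, 1,000 L/ha) was sprayed evenly onto soil directly after sowing and covering seeds.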

[5] = tested on: green foxtail (Setaria viridis (L.) P. Beauv.); assay: as above; conditions: soil surface spray, upland field soil, 1,000 g active ingredient per hectare, 21st day after application
Procedure, shortened: as §2

[6] = tested on: slender amaranth (Amaranthus viridis L.); assay: as above; conditions: soil surface spray, upland field soil, 1,000 g active ingredient per hectare, 21st day after application
Procedure, shortened: as §2

[7] = tested on: velvetleaf (Abutilon theophrasti medicus); assay: as above; conditions: soil surface spray, upland field soil, 1,000 g active ingredient per hectare, 21st day after application
Procedure, shortened: as §2

[8] = tested on: barnyardgrass (Echinochloa crus-galli (L.) P. Beauv. var. crus-galli); assay: Test Example 3: herbicidal effect by application to upland field (foliage treatment); conditions: foliage treatment, 1,000 g active ingredient per 1 hectare, 14th day after application, greenhouse
Procedure, shortened: (§3)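 Foliar spray on two-week-old greenhouse weeds in field soil: wettable powder formulation diluted in water, applied at 1,000 L/ha to give 1,000 g a.i./ha. Damage rated by a fixed scoring standard on day 14 after application.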

[9] = tested on: green foxtail (Setaria viridis (L.) P. Beauv.); assay: as above; conditions: foliage treatment, 1,000 g active ingredient per 1 hectare, 14th day after application, greenhouse
Procedure, shortened: as §3

[10] = tested on: slender amaranth (Amaranthus viridis L.); assay: as above; conditions: foliage treatment, 1,000 g active ingredient per 1 hectare, 14th day after application, greenhouse
Procedure, shortened: as §3

[11] = tested on: velvetleaf (Abutilon theophrasti medicus); assay: as above; conditions: foliage treatment, 1,000 g active ingredient per 1 hectare, 14th day after application, greenhouse
Procedure, shortened: as §3

Row | Structure (SMILES) | herbicidal effect, Scirpus juncoides Roxb. [1] | herbicidal effect, Echinochloa oryzicola Vasing [2] | herbicidal effect, Monochoria vaginalis (Burm. f.) C. Presl [3] | herbicidal effect (index), Barnyardgrass [4] | herbicidal effect (index), Green Foxtail [5] | herbicidal effect (index), Slender Amaranth [6] | herbicidal effect (index), Velvetleaf [7] | herbicidal effect, Barnyardgrass [8] | herbicidal effect, Green Foxtail [9] | herbicidal effect, Slender Amaranth [10] | herbicidal effect, Velvetleaf [11]
1 | N#Cc1ccc(Cn2c(C(F)(F)F)ccc(C(=O)C3=C(O)CCCC3=O)c2=O)cc1 [I-119] | 5 (90% or more of herbicidal effect and crop phytotoxicity) | 5 (90% or more of herbicidal effect and crop phytotoxicity) | 5 (90% or more of herbicidal effect and crop phytotoxicity) | 5 (90% or more of herbicidal effect and crop phytotoxicity) | 5 (90% or more of herbicidal effect and crop phytotoxicity) | 5 (90% or more of herbicidal effect and crop phytotoxicity) | 5 (90% or more of herbicidal effect and crop phytotoxicity) | 5 (90% or more of herbicidal effect and crop phytotoxicity) | 5 (90% or more of herbicidal effect and crop phytotoxicity) | 5 (90% or more of herbicidal effect and crop phytotoxicity) | 5 (90% or more of herbicidal effect and crop phytotoxicity)
2 | CCN(C)n1c(C(F)(F)F)ccc(C(=O)C2=C(O)CCCC2=O)c1=O [I-175] | 5 (90% or more of herbicidal effect and crop phytotoxicity) | 5 (90% or more of herbicidal effect and crop phytotoxicity) | 5 (90% or more of herbicidal effect and crop phytotoxicity) | 5 (90% or more of herbicidal effect and crop phytotoxicity) | 5 (90% or more of herbicidal effect and crop phytotoxicity) | 5 (90% or more of herbicidal effect and crop phytotoxicity) | 5 (90% or more of herbicidal effect and crop phytotoxicity) | 5 (90% or more of herbicidal effect and crop phytotoxicity) | 4 (70 to less than 90% of herbicidal effect and crop phytotoxicity) | 5 (90% or more of herbicidal effect and crop phytotoxicity) | 5 (90% or more of herbicidal effect and crop phytotoxicity)
3 | CCCn1c(C(F)(F)F)c(C)cc(C(=O)C2=C(O)CCCC2=O)c1=O [I-215] | 5 (90% or more of herbicidal effect and crop phytotoxicity) | 5 (90% or more of herbicidal effect and crop phytotoxicity) | 5 (90% or more of herbicidal effect and crop phytotoxicity) | 5 (90% or more of herbicidal effect and crop phytotoxicity) | 5 (90% or more of herbicidal effect and crop phytotoxicity) | 5 (90% or more of herbicidal effect and crop phytotoxicity) | 5 (90% or more of herbicidal effect and crop phytotoxicity) | 5 (90% or more of herbicidal effect and crop phytotoxicity) | 5 (90% or more of herbicidal effect and crop phytotoxicity) | 5 (90% or more of herbicidal effect and crop phytotoxicity) | 5 (90% or more of herbicidal effect and crop phytotoxicity)
4 | Cc1nn(C)c(O)c1C(=O)c1ccc(C(F)(F)F)n(-c2ccc(F)c(F)c2)c1=O [IV-86] | 4 (70 to less than 90% of herbicidal effect and crop phytotoxicity) | 5 (90% or more of herbicidal effect and crop phytotoxicity) | 5 (90% or more of herbicidal effect and crop phytotoxicity) | 5 (90% or more of herbicidal effect and crop phytotoxicity) | 5 (90% or more of herbicidal effect and crop phytotoxicity) | 5 (90% or more of herbicidal effect and crop phytotoxicity) | 5 (90% or more of herbicidal effect and crop phytotoxicity) | 5 (90% or more of herbicidal effect and crop phytotoxicity) | 4 (70 to less than 90% of herbicidal effect and crop phytotoxicity) | 5 (90% or more of herbicidal effect and crop phytotoxicity) | 5 (90% or more of herbicidal effect and crop phytotoxicity)
5 | O=C1CCCC(O)=C1C(=O)c1ccc(C(F)(F)F)n(NCCCF)c1=O [I-168] | 5 (90% or more of herbicidal effect and crop phytotoxicity) | 5 (90% or more of herbicidal effect and crop phytotoxicity) | 5 (90% or more of herbicidal effect and crop phytotoxicity) | 5 (90% or more of herbicidal effect and crop phytotoxicity) | 5 (90% or more of herbicidal effect and crop phytotoxicity) | 5 (90% or more of herbicidal effect and crop phytotoxicity) | 5 (90% or more of herbicidal effect and crop phytotoxicity) | 5 (90% or more of herbicidal effect and crop phytotoxicity) | 5 (90% or more of herbicidal effect and crop phytotoxicity) | 5 (90% or more of herbicidal effect and crop phytotoxicity) | 5 (90% or more of herbicidal effect and crop phytotoxicity)
6 | CCn1ncc(C(=O)c2ccc(C(F)(F)F)n(CC3CCCO3)c2=O)c1O (stereo not drawn) [IV-205] | 5 (90% or more of herbicidal effect and crop phytotoxicity) | 5 (90% or more of herbicidal effect and crop phytotoxicity) | 5 (90% or more of herbicidal effect and crop phytotoxicity) | 5 (90% or more of herbicidal effect and crop phytotoxicity) | 5 (90% or more of herbicidal effect and crop phytotoxicity) | 5 (90% or more of herbicidal effect and crop phytotoxicity) | 5 (90% or more of herbicidal effect and crop phytotoxicity) | 5 (90% or more of herbicidal effect and crop phytotoxicity) | 5 (90% or more of herbicidal effect and crop phytotoxicity) | 5 (90% or more of herbicidal effect and crop phytotoxicity) | 5 (90% or more of herbicidal effect and crop phytotoxicity)
